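48-hour exposure; five concentrations; linearly interpolated endpoints. GI50: concentration for 50% inhibition of growth.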 The source made the active and inactive calls. No stated cut-off is given here; in the data, active = GI50 up to about 1.1 µM and inactive = higher.
What was measured:
Assay in all cases: NCI anticancer screen, dose series, 48 h
HL-60 = tested on: HL-60
786-0 = tested on: 786-0
SK-OV-3 = tested on: SK-OV-3
SW-620 = tested on: SW-620
RPMI-8226 = tested on: RPMI-8226
Malme-3M = tested on: Malme-3M
OVCAR-8 = tested on: OVCAR-8
OVCAR-5 = tested on: OVCAR-5
HOP-92 = tested on: HOP-92
HCT-116 = tested on: HCT-116
EKVX = tested on: EKVX
NCI-H522 = tested on: NCI-H522
A549 = tested on: A549
SNB-75 = tested on: SNB-75
SNB-19 = tested on: SNB-19
RXF 393 = tested on: RXF 393
HCC 2998 = tested on: HCC 2998
LOX IMVI = tested on: LOX IMVI

Measured: GI50

CCC1=C(C(C)=O)[C@@H]2CCCCC[C@@H](C(=O)OC)C2C1=O (some centres not stated)
inactive: HL-60 > 100 µM | 786-0 > 100 µM | SK-OV-3 > 100 µM | SW-620 > 100 µM | RPMI-8226 > 100 µM | Malme-3M > 100 µM | OVCAR-8 > 100 µM | OVCAR-5 > 100 µM | HOP-92 > 100 µM | HCT-116 > 100 µM | EKVX > 100 µM | NCI-H522 > 100 µM | A549 > 100 µM | SNB-75 > 100 µM | SNB-19 > 100 µM | RXF 393 > 100 µM | HCC 2998 > 100 µM

O=S(O)c1cc(Cl)c(O)c(Cl)c1
inactive: HL-60 > 100 µM | SK-OV-3 > 100 µM | Malme-3M > 100 µM | OVCAR-5 > 100 µM | HCT-116 > 100 µM | EKVX > 100 µM | NCI-H522 > 100 µM | SNB-75 > 100 µM | SNB-19 > 100 µM | LOX IMVI > 100 µM | RXF 393 > 100 µM | HCC 2998 > 100 µM

CC(C)c1cccc2sc(NC(=O)C(=O)C(C#N)c3cccc4ccccc34)nc12 (configuration not stated)
inactive: HL-60 30.5 µM | 786-0 > 100 µM | SK-OV-3 48.4 µM | SW-620 > 100 µM | Malme-3M 73.3 µM | OVCAR-8 72.1 µM | HOP-92 30.4 µM | HCT-116 76.9 µM | EKVX 10.9 µM | NCI-H522 54.1 µM | A549 80.7 µM | SNB-75 23.4 µM | SNB-19 > 100 µM | RXF 393 25.2 µM | HCC 2998 65.8 µM

COc1ccc(/C(C=O)=C(\Cl)c2ccc(OC)c(OC)c2)cc1
inactive: HL-60 24 µM | SK-OV-3 67.1 µM | SW-620 > 100 µM | RPMI-8226 > 100 µM | Malme-3M > 100 µM | OVCAR-8 75.5 µM | OVCAR-5 > 100 µM | HCT-116 > 100 µM | EKVX > 100 µM | NCI-H522 5.83 µM | A549 > 100 µM | SNB-75 22.6 µM | SNB-19 > 100 µM | LOX IMVI > 100 µM | RXF 393 > 100 µM | HCC 2998 > 100 µM

CC(C)c1cccc(C(C)C)c1NC(=O)C(=O)C1CCC2=C(Sc3ccccc3N2)C1=O (configuration not stated)
inactive: HL-60 74.1 µM | 786-0 65.2 µM | SK-OV-3 60.8 µM | SW-620 12 µM | RPMI-8226 44.4 µM | Malme-3M > 100 µM | OVCAR-8 38.7 µM | OVCAR-5 41.5 µM | HOP-92 > 100 µM | HCT-116 48.9 µM | EKVX > 100 µM | A549 > 100 µM | SNB-75 32.3 µM | SNB-19 > 100 µM | LOX IMVI 53.6 µM | RXF 393 > 100 µM | HCC 2998 > 100 µM

COc1ccccc1/N=N/c1c(-c2ccccc2)nn(C(=O)CC(=O)Nc2ccccc2Cl)c1-c1ccccc1
inactive: HL-60 > 100 µM | 786-0 > 100 µM | SK-OV-3 > 100 µM | SW-620 > 100 µM | RPMI-8226 65.5 µM | Malme-3M > 100 µM | OVCAR-8 > 100 µM | OVCAR-5 > 100 µM | HCT-116 > 100 µM | EKVX > 100 µM | NCI-H522 > 100 µM | A549 > 100 µM | SNB-75 > 100 µM | SNB-19 > 100 µM | LOX IMVI > 100 µM | RXF 393 24.6 µM | HCC 2998 > 100 µM

CCCCCCCCCCCCCCCCCCC1=C(O)C(=O)C=C(OC)C1=O
inactive: HL-60 22.5 µM | 786-0 34.3 µM | SK-OV-3 > 100 µM | SW-620 51.4 µM | Malme-3M 64.9 µM | OVCAR-8 32.4 µM | OVCAR-5 39.5 µM | HOP-92 80.4 µM | HCT-116 43.7 µM | EKVX 41.7 µM | NCI-H522 28.4 µM | A549 46.8 µM | SNB-75 30.6 µM | SNB-19 61.4 µM | RXF 393 43.6 µM | HCC 2998 38.3 µM

CC(C)[C@@H](C)CC[C@@H](C)C1CC=C2[C@@H]3CCC4C[C@@H](O[Si](C)(C)C(C)(C)C)CC[C@]4(C)C3CC[C@@]21C (some centres not stated)
inactive: HL-60 > 100 µM | 786-0 > 100 µM | SK-OV-3 > 100 µM | SW-620 > 100 µM | RPMI-8226 > 100 µM | Malme-3M > 100 µM | OVCAR-8 > 100 µM | HCT-116 > 100 µM | EKVX > 100 µM | NCI-H522 > 100 µM | A549 > 100 µM | SNB-75 > 100 µM | SNB-19 > 100 µM | RXF 393 > 100 µM | HCC 2998 > 100 µM

Cc1ccc(SC(CCC(Sc2ccc(C)cc2)Sc2ccc(C)cc2)Sc2ccc(C)cc2)cc1
inactive: HL-60 > 100 µM | 786-0 > 100 µM | SK-OV-3 > 100 µM | SW-620 > 100 µM | RPMI-8226 > 100 µM | OVCAR-8 > 100 µM | HOP-92 71.1 µM | HCT-116 > 100 µM | EKVX > 100 µM | NCI-H522 > 100 µM | A549 > 100 µM | SNB-75 > 100 µM | SNB-19 > 100 µM | LOX IMVI > 100 µM | RXF 393 > 100 µM

N#CC(Nc1cccc(C(F)(F)F)c1)c1ccccc1C(F)(F)F (configuration not stated)
inactive: HL-60 4.9 µM | SK-OV-3 17.6 µM | SW-620 3.08 µM | Malme-3M 7.33 µM | OVCAR-8 16.3 µM | OVCAR-5 14.8 µM | HCT-116 7.66 µM | EKVX 15.4 µM | NCI-H522 6.71 µM | A549 15.3 µM | SNB-75 18.3 µM | SNB-19 17.3 µM | LOX IMVI 5.51 µM | RXF 393 12.2 µM | HCC 2998 7.78 µM

NCCSc1nc(N)c2ncn(C3OC(CO)C(O)C3O)c2n1 (configuration not stated)
inactive: HL-60 > 100 µM | 786-0 > 100 µM | SK-OV-3 > 100 µM | SW-620 > 100 µM | RPMI-8226 > 100 µM | Malme-3M > 100 µM | OVCAR-8 > 100 µM | OVCAR-5 > 100 µM | HOP-92 > 100 µM | HCT-116 > 100 µM | NCI-H522 > 100 µM | A549 > 100 µM | SNB-75 > 100 µM | SNB-19 > 100 µM | LOX IMVI > 100 µM | HCC 2998 > 100 µM

CCCCCCCC(=O)OC[C@@H](C[As](=O)(O)O)OC(=O)CCCCCCC
inactive: HL-60 2.98 µM | 786-0 12.1 µM | SK-OV-3 14.6 µM | SW-620 12.9 µM | RPMI-8226 10.3 µM | Malme-3M 14.1 µM | OVCAR-8 13.5 µM | HOP-92 17.2 µM | HCT-116 10.6 µM | EKVX 26.5 µM | NCI-H522 1.56 µM | A549 3.73 µM | SNB-75 11.5 µM | SNB-19 14.2 µM | RXF 393 4.97 µM | HCC 2998 15.7 µM
